Tests used:
hSTING(WT) = hSTING(WT) (Homo sapiens, UniProt Q86WV6, H232R); experiment: Differential scanning fluorometry (DSF) binding to purified hSTING WT; parameters: DNA encoding amino acids 140-379 (amino acid numbering corresponding to Swiss Prot Q86WV6); 6xHIS (N, cleaved yes); SUMO (N, cleaved yes); made in house; host or cells: Rosetta2 (DE3) E. coli; details: for Tm shift compared with non fluorine substituted compounds and 2′3′-(G)(A), in words: FIG. 3, hSTING (WT); for binding relative to OH reference compound, in words / binding relative to naturally produced 2′3′-(G)(A), in words: Table 4 comment, wild type hSTING
Chain of hSTING(WT) (Q86WV6 140-379 H232R): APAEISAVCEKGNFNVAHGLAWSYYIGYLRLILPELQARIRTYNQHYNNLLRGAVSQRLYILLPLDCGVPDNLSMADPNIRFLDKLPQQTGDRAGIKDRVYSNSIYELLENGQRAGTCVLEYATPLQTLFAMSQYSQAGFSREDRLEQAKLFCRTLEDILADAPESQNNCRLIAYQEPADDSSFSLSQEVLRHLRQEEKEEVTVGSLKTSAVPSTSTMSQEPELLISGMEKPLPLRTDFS

B16.SIY cells = experiment: B16.SIY melanoma mouse model, intra-tumoral injection; type: in vivo, C57BL/6 mice
Description: To determine whether the derivative molecules elicit anti-tumor immunity, 6-8 week old female C57BL/6 mice (8 mice per group) were implanted with B16.SIY cells (5×10^5 cells in 100 μL PBS). Mice were treated with reference compound 3′3′-RR-(A)(A) and di-F compound 3′3′-RR-(2′F-A)(2′F-A) (5, 50, 100 μg in a total volume of 40 μL HBSS), or HBSS vehicle control. Treatments began when tumors reached a volume of approximately 100 mm^3, on day 9 post tumor implantation. The CDN compounds were administered by […] injection into the center of the tumor (IT) using a 27 gauge needle. Mice were bled on day 16 post tumor implantation and PBMCs were isolated by Ficoll gradient (Miltenyi Biotech). 1×10^5 PBMCs were pre-incubated with anti-CD16/32 monoclonal antibody to block potential nonspecific binding, and labeled with PE-MHC class I pentamer (Proimmune) consisting of murine H-2Kb complexed to […] (SIY, SEQ ID NO: 16) peptide, anti-TCRβ-AF700 (H57-597), anti-CD8-Pacific Blue (53-6.7), anti-CD4-Pacific Orange (RM4-5) (all antibodies from BioLegend) and the Fixable Viability Dye eFluor 450 (eBioscience). Stained cells were analyzed using FACS Versa cytometer with FACSDiva software (BD). Data analysis was conducted with FlowJo software (Tree Star).

[1] = target: T1, human-STING(E149-S379)H232R protein (Homo sapiens, UniProt Q86WV6, H232R); experiment: Surface Plasmon Resonance binding to hSTING WT; details: Biacore T200, 15° C., steady-state analysis
T1 construct: His6 (C); made in house; host or cells: E. coli
T1 sequence (Q86WV6 with tags, fused parts or gaps H232R): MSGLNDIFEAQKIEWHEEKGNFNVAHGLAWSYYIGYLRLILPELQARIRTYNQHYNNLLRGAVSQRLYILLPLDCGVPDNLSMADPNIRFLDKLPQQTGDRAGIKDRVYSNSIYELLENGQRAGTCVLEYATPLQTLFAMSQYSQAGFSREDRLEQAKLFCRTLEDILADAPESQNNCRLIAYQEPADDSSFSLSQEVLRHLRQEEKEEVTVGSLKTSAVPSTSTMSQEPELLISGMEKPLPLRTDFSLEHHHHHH
Description: Binding of the mono- and di-F CDN compounds was assessed using Surface Plasmon Resononce to determine a binding constant. An E. coli expression construct (human-STING[E149-S379]H232R) was prepared harboring the protein sequence:
Aliquots were prepared and stored at −80° C. in 30 mM Tris pH 7.5/100 mM NaCl/10% glycerol.
N-terminal avi-tagged human-STING(E149-S379)H232R protein was immobilized (2500 RUs) on a streptavidin chip at 15° C. in a Biacore T200 (GE Healthcare). Titrations of cyclic dinucleotides (CDNs as indicated in Table 6) in 30 mM Tris pH 7.5/50 mM NaCL/0.005% Tween 20/1 mM DTT/2% DMSO, were profiled (30 μLs/min, 180 seconds for sample contact/120 seconds for dissociation) against hSTING at 15° C. Kinetic analysis of the data was performed using Biacore T200 Evaluation software. Steady-state analysis of the data was performed using Graphpad Prism 6.0 software, using one site-specific binding algorithm (Equation is Y=Bmax*X/(Kd+X)).

SMILES	Tm shift compared with non fluorine substituted compounds and 2′3′-(G)(A), in words (hSTING(WT))	binding relative to OH reference compound, in words (hSTING(WT))	binding relative to naturally produced 2′3′-(G)(A), in words (hSTING(WT))	hSTING Tm Shift WT (hSTING(WT); DSF, 1 mg/ml STING AA140-379, ligand 1 mM) [°C]	tumor volume / tumor growth, in words (B16.SIY cells; FIG. 14A, IT injection 5, 50, 100 μg, established B16-SIY melanomas)	percent of SIY-specific CD8+ T cells in PBMCs, in words (B16.SIY cells; FIG. 14B, 5 μg IT, day 7 post-IT injection, vs HBSS control)	Kd [1] [nM]
Nc1nc2c(ncn2[C@@H]2O[C@@H]3CO[P@@](=O)(S)O[C@H]4[C@@H](F)[C@H](n5cnc6c(N)ncnc65)O[C@@H]4CO[P@@](=O)(S)O[C@H]3[C@H]2F)c(=O)[nH]1 (stereo in doubt) [Compound 14, 2-Amino-9-((2R,3R,3aR,5R,7aR,9R,10R,10aR,12R,14aR)-9-(6-amino-9H-purin-9-yl)-3,10-difluoro-5,12-dimercapto-5,12-dioxidooctahydro-2H,7H-difuro [3,2-d:3′,2′-j][1,3,7,9]tetraoxa[2,8]diphosphacyclododecin-2-yl)-1,9-dihydro-6H-purin-6-one]	increased Tm shift	improved binding	improved binding	–	–	–	–
Nc1ncnc2c1ncn2[C@@H]1O[C@@H]2CO[P@@](=O)(S)O[C@H]3[C@@H](F)[C@H](n4cnc5c(N)ncnc54)O[C@@H]3CO[P@@](=O)(S)O[C@H]2[C@H]1F [Compound 6, (2R,3R,3aR,5R,7aR,9R,10R,10aR,12R,14aR)-2,9-bis(6-amino-9H-purin-9-yl)-3,10-difluoro-5,12-dimercaptooctahydro-2H,7H-difuro[3,2-d:3′,2′-j][1,3,7,9]tetraoxa[2,8]diphosphacyclododecine 5,12-dioxide]	increased Tm shift	improved binding	improved binding	19.3	rejected the growth of established B16-SIY melanomas at all doses	elicited significantly SIY-specific CD8^+ T cells	1
